Where two headings read alike, the source gives them in different places.
Assay: Phase I study CXR1002-001: plasma pharmacokinetics (LC-MS/MS)
Assay type: in vivo, human
Details: human, plasma, plasma; for concentration at 336 hr: 336 hr (Day 15)
Excerpt: PK samples, PD (fasting) samples, blood glucose, and blood triglyceride samples, were taken over a 6-week period.
Dose limiting toxicity (DLT) will be based on the toxicity assessments over the first 3-week period of the repeat dosing schedule. PK samples (single blood sample) were taken on the following basis: • Every 6 weeks during the repeat dosing phase • If dosing is interrupted or stopped, samples will be taken at intervals according to patient convenience • PK sampling for safety evaluation may take place at any time, as clinically indicated
Plasma samples were collected after the single 50 mg dose at the following timepoints: Pre-dose, and then 0.25, 0.5, 0.75, 1, 1.5, 2, 3, 4, 6, 24, 48, and 72 hours after administration and then once weekly at weeks 2, 3, 4, 5, and 6 (days 8, 15, 22, 29, and 36). For patients treated with the weekly repeat dose, plasma samples were collected at the following timepoints: Pre-dose and then 2, 3, 4 and 24 hours after administration for a total of 6 weeks. Thereafter a single sample was collected every 6 weeks for monitoring of exposure during long term treatment. Plasma samples were processed at site and stored at −80° C. prior to batch shipment to the analytical laboratory.

Molecule `O=C(O)C(F)(F)C(F)(F)C(F)(F)C(F)(F)C(F)(F)C(F)(F)C(F)(F)F` [CXR1002] has a concentration at 4 hr (oral, 1200 mg, Patient 034, 1200 mg, person, 4 hr, read-out: Concentration) of 560 µM, a concentration at 24 hr (oral, 1200 mg, Patient 034, 1200 mg, person, 24 hr (Day 2), read-out: Concentration) of 409 µM and a concentration at 168 hr (oral, 1200 mg, Patient 034, 1200 mg, person, 168 hr (Day 8), read-out: Concentration) of 351 µM. For the same molecule, the concentration at 170 hr (oral, 1200 mg, Patient 034, 1200 mg, person, 170 hr, read-out: Concentration) was 893 µM, the concentration at 171 hr (oral, 1200 mg, Patient 034, 1200 mg, person, 171 hr, read-out: Concentration) was 771 µM and the concentration at 172 hr (oral, 1200 mg, Patient 034, 1200 mg, person, 172 hr, read-out: Concentration) was 730 µM. The concentration at 192 hr (oral, 1200 mg, Patient 034, 1200 mg, person, 192 hr (Day 9), read-out: Concentration) was 722 µM, the concentration at 336 hr (oral, 1200 mg, Patient 034, 1200 mg, person, read-out: Concentration) was 644 µM and the concentration at 338 hr (oral, 1200 mg, Patient 034, 1200 mg, person, 338 hr, read-out: Concentration) was 1030 µM. It also gave a concentration at 339 hr (oral, 1200 mg, Patient 034, 1200 mg, person, 339 hr, read-out: Concentration) of 1120 µM, a concentration at 340 hr (oral, 1200 mg, Patient 034, 1200 mg, person, 340 hr, read-out: Concentration) of 955 µM and a concentration at 360 hr (oral, 1200 mg, Patient 034, 1200 mg, person, 360 hr (Day 16), read-out: Concentration) of 1020 µM. It also gave a concentration at 504 hr (oral, 1200 mg, Patient 034, 1200 mg, person, 504 hr (Day 22), read-out: Concentration) of 924 µM, a concentration at 506 hr (oral, 1200 mg, Patient 034, 1200 mg, person, 506 hr, read-out: Concentration) of 1350 µM and a concentration at 507 hr (oral, 1200 mg, Patient 034, 1200 mg, person, 507 hr, read-out: Concentration) of 1220 µM. For the same molecule, the concentration at 508 hr (oral, 1200 mg, Patient 034, 1200 mg, person, 508 hr, read-out: Concentration) was 1440 µM, the concentration at 528 hr (oral, 1200 mg, Patient 034, 1200 mg, person, 528 hr (Day 23), read-out: Concentration) was 1360 µM and the concentration at 672 hr (oral, 1200 mg, Patient 034, 1200 mg, person, 672 hr (Day 29), read-out: Concentration) was 1080 µM. The concentration at 674 hr (oral, 1200 mg, Patient 034, 1200 mg, person, 674 hr, read-out: Concentration) was 1310 µM, the concentration at 675 hr (oral, 1200 mg, Patient 034, 1200 mg, person, 675 hr, read-out: Concentration) was 1450 µM and the concentration at 676 hr (oral, 1200 mg, Patient 034, 1200 mg, person, 676 hr, read-out: Concentration) was 1380 µM. For the same molecule, the concentration at 696 hr (oral, 1200 mg, Patient 034, 1200 mg, person, 696 hr (Day 30), read-out: Concentration) was 1310 µM, the concentration at 2 hr (oral, 1200 mg, Patient 035, 1200 mg, person, 2 hr, read-out: Concentration) was 298 µM and the concentration at 3 hr (oral, 1200 mg, Patient 035, 1200 mg, person, 3 hr, read-out: Concentration) was 196 µM. For the same molecule, the concentration at 4 hr (oral, 1200 mg, Patient 035, 1200 mg, person, 4 hr, read-out: Concentration) was 317 µM, the concentration at 24 hr (oral, 1200 mg, Patient 035, 1200 mg, person, 24 hr (Day 2), read-out: Concentration) was 261 µM and the concentration at 168 h (oral, 1200 mg, Patient 035, 1200 mg, person, 168 hr (Day 8), read-out: Concentration) was 254 µM. For the same molecule, the concentration at 170 h (oral, 1200 mg, Patient 035, 1200 mg, person, 170 hr, read-out: Concentration) was 460 µM, the concentration at 171 h (oral, 1200 mg, Patient 035, 1200 mg, person, 171 hr, read-out: Concentration) was 479 µM and the concentration at 172 h (oral, 1200 mg, Patient 035, 1200 mg, person, 172 hr, read-out: Concentration) was 592 µM. For the same molecule, the concentration at 192 h (oral, 1200 mg, Patient 035, 1200 mg, person, 192 hr (Day 9), read-out: Concentration) was 543 µM, the concentration at 336 hr (oral, 1200 mg, Patient 035, 1200 mg, person, read-out: Concentration) was 476 µM and the concentration at 338 hr (oral, 1200 mg, Patient 035, 1200 mg, person, 338 hr, read-out: Concentration) was 570 µM. For the same molecule, the concentration at 339 hr (oral, 1200 mg, Patient 035, 1200 mg, person, 339 hr, read-out: Concentration) was 621 µM, the concentration at 340 hr (oral, 1200 mg, Patient 035, 1200 mg, person, 340 hr, read-out: Concentration) was 649 µM and the concentration at 360 h (oral, 1200 mg, Patient 035, 1200 mg, person, 360 hr (Day 16), read-out: Concentration) was 704 µM. For the same molecule, the concentration at 504 h (oral, 1200 mg, Patient 035, 1200 mg, person, 504 hr (Day 22), read-out: Concentration) was 600 µM, the concentration at 506 h (oral, 1200 mg, Patient 035, 1200 mg, person, 506 hr, read-out: Concentration) was 774 µM and the concentration at 507 h (oral, 1200 mg, Patient 035, 1200 mg, person, 507 hr, read-out: Concentration) was 925 µM. For the same molecule, the concentration at 508 h (oral, 1200 mg, Patient 035, 1200 mg, person, 508 hr, read-out: Concentration) was 1020 µM, the concentration at 2 hr (po, 1000 mg, Patient 041, 1000 mg weekly oral dose, Time 2 hr, read-out: Concentration (plasma level)) was 223 µM and the concentration at 3 hr (po, 1000 mg, Patient 041, 1000 mg weekly oral dose, Time 3 hr, read-out: Concentration (plasma level)) was 233 µM. For the same molecule, the concentration at 4 hr (po, 1000 mg, Patient 041, 1000 mg weekly oral dose, Time 4 hr, read-out: Concentration (plasma level)) was 207 µM, the concentration at 24 hr (po, 1000 mg, Patient 041, 1000 mg weekly oral dose, Time 24 hr (Day 2), read-out: Concentration (plasma level)) was 175 µM and the concentration at 168 hr (po, 1000 mg, Patient 041, 1000 mg weekly oral dose, Time 168 hr (Day 8), read-out: Concentration (plasma level)) was 171 µM. It also gave a concentration at 170 hr (po, 1000 mg, Patient 041, 1000 mg weekly oral dose, Time 170 hr, read-out: Concentration (plasma level)) of 342 µM, a concentration at 171 hr (po, 1000 mg, Patient 041, 1000 mg weekly oral dose, Time 171 hr, read-out: Concentration (plasma level)) of 413 µM and a concentration at 172 hr (po, 1000 mg, Patient 041, 1000 mg weekly oral dose, Time 172 hr, read-out: Concentration (plasma level)) of 357 µM. It also gave a concentration at 192 hr (po, 1000 mg, Patient 041, 1000 mg weekly oral dose, Time 192 hr (Day 9), read-out: Concentration (plasma level)) of 396 µM, a concentration at 336 h (po, 1000 mg, Patient 041, 1000 mg weekly oral dose, Time 336 hr (Day 15), read-out: Concentration (plasma level)) of 294 µM and a concentration at 338 hr (po, 1000 mg, Patient 041, 1000 mg weekly oral dose, Time 338 hr, read-out: Concentration (plasma level)) of 411 µM. It also gave a concentration at 339 hr (po, 1000 mg, Patient 041, 1000 mg weekly oral dose, Time 339 hr, read-out: Concentration (plasma level)) of 485 µM, a concentration at 340 hr (po, 1000 mg, Patient 041, 1000 mg weekly oral dose, Time 340 hr, read-out: Concentration (plasma level)) of 478 µM and a concentration at 360 hr (po, 1000 mg, Patient 041, 1000 mg weekly oral dose, Time 360 hr (Day 16), read-out: Concentration (plasma level)) of 508 µM. It also gave a concentration at 504 hr (po, 1000 mg, Patient 041, 1000 mg weekly oral dose, Time 504 hr (Day 22), read-out: Concentration (plasma level)) of 558 µM, a concentration at 506 hr (po, 1000 mg, Patient 041, 1000 mg weekly oral dose, Time 506 hr, read-out: Concentration (plasma level)) of 674 µM and a concentration at 507 hr (po, 1000 mg, Patient 041, 1000 mg weekly oral dose, Time 507 hr, read-out: Concentration (plasma level)) of 748 µM. It also gave a concentration at 508 hr (po, 1000 mg, Patient 041, 1000 mg weekly oral dose, Time 508 hr, read-out: Concentration (plasma level)) of 676 µM.

— patent publication US20130029928A1 (priority 2010, published 2013)
